What was measured:
[1] = system: Sprague Dawley (SD) rats; assay: Urinalysis, 4-week subacute toxicity study; format: in vivo, rat
Method: Urine samples were directly collected from the metabolic cage at the end of dosing phase (Day 26) and at the end of recovery phase (Recovery Day 28), respectively. Urinalysis parameters in Table 1 were evaluated using CLINITEK Atlas automatic urine analyzer (Germany).

[2] = system: rats; assay: Spontaneous withdrawal test in rats; format: in vivo, rat; conditions: iv 0.3 to 1.8 mg/kg/day for 30 consecutive days; data not shown
Method: However, we have conducted the spontaneous withdrawal test in rats in 2019 at WCFP (data not shown in this manuscript). The rats were intravenously injected with LPM3480392 injection from 0.3 to 1.8 mg/kg/day for 30 consecutive days. […] There were no apparent abnormalities in body weights of female rats in LPM3480392 injection groups during dosing and recovery phases. The effects of LPM3480392 on body weight in males or females in the spontaneous withdrawal test are similar to those in the subacute toxicity study in rats.

[3] = system: Sprague Dawley (SD) rats; assay: Clinical chemistry, 4-week subacute toxicity study
[4] = 0.6 mg/kg/day, End of dosing phase, N 5
[5] = 0.6 mg/kg/day, End of recovery phase, N 5
[6] = 1.2 mg/kg/day, End of dosing phase, N 5
[7] = 1.2 mg/kg/day, End of recovery phase, N 5
[8] = 2.4 mg/kg/day, End of dosing phase, N 4
[9] = 2.4 mg/kg/day, End of dosing phase, N 5
[10] = 2.4 mg/kg/day, End of recovery phase, N 4
[11] = 2.4 mg/kg/day, End of recovery phase, N 5
[12] = female rats, 0.6 mg/kg/day, End of dosing phase
[13] = female rats, 0.6 mg/kg/day, End of recovery phase
[14] = female rats, 1.2 mg/kg/day, End of dosing phase
[15] = female rats, 1.2 mg/kg/day, End of recovery phase
[16] = female rats, 2.4 mg/kg/day, End of dosing phase
[17] = female rats, 2.4 mg/kg/day, End of recovery phase
[18] = male rats, 0.6 mg/kg/day, End of dosing phase
[19] = male rats, 0.6 mg/kg/day, End of recovery phase
[20] = male rats, 1.2 mg/kg/day, End of dosing phase
[21] = male rats, 1.2 mg/kg/day, End of recovery phase
[22] = male rats, 2.4 mg/kg/day, End of dosing phase
[23] = male rats, 2.4 mg/kg/day, End of recovery phase

## Fc1ccc([C@]2(CCNCc3cccc(Cl)c3)CCO[C@]3(CCOC3)C2)nc1 [LPM3480392]
[1]; [4]
  KET (mmol/L) of males: animals with grade 1.5: 3
  KET (mmol/L) of males: animals with grade 3.9: 1
  KET (mmol/L) of males: animals with grade —: 1
  NIT of males: animals with grade +: 2
  NIT of males: animals with grade —: 3
  pH of females: animals with grade 7.0: 1
  pH of females: animals with grade 7.5: 3
  pH of females: animals with grade 8.5: 1
[1]; [5]
  KET (mmol/L) of males: animals with grade 1.5: 2
  KET (mmol/L) of males: animals with grade 3.9: 1
  KET (mmol/L) of males: animals with grade —: 2
  NIT of males: animals with grade +: 3
  NIT of males: animals with grade —: 2
  pH of females: animals with grade 6.0: 0
  pH of females: animals with grade 6.5: 0
  pH of females: animals with grade 7.0: 0
  pH of females: animals with grade 7.5: 4
  pH of females: animals with grade 8.0: 1
[1]; [6]
  KET (mmol/L) of males: animals with grade 1.5: 3
  KET (mmol/L) of males: animals with grade 3.9: 1
  KET (mmol/L) of males: animals with grade —: 1
  NIT of males: animals with grade +: 1
  NIT of males: animals with grade —: 4
  pH of females: animals with grade 7.0: 1
  pH of females: animals with grade 7.5: 3
  pH of females: animals with grade 8.5: 1
[1]; [7]
  KET (mmol/L) of males: animals with grade 1.5: 2
  KET (mmol/L) of males: animals with grade 3.9: 1
  KET (mmol/L) of males: animals with grade —: 2
  NIT of males: animals with grade +: 1
  NIT of males: animals with grade —: 4
  pH of females: animals with grade 6.0: 1
  pH of females: animals with grade 6.5: 0
  pH of females: animals with grade 7.0: 2
  pH of females: animals with grade 7.5: 1
  pH of females: animals with grade 8.0: 1
[1]; [8]
  pH of females: animals with grade 7.0: 0
  pH of females: animals with grade 7.5: 1
  pH of females: animals with grade 8.5: 3
[1]; [9]
  KET (mmol/L) of males: animals with grade 1.5: 0
  KET (mmol/L) of males: animals with grade 3.9: 0
  KET (mmol/L) of males: animals with grade —: 5
  NIT of males: animals with grade +: 1
  NIT of males: animals with grade —: 4
[1]; [10]
  pH of females: animals with grade 6.0: 0
  pH of females: animals with grade 6.5: 2
  pH of females: animals with grade 7.0: 2
  pH of females: animals with grade 7.5: 0
  pH of females: animals with grade 8.0: 0
[1]; [11]
  KET (mmol/L) of males: animals with grade 1.5: 1
  KET (mmol/L) of males: animals with grade 3.9: 0
  KET (mmol/L) of males: animals with grade —: 4
  NIT of males: animals with grade +: 0
  NIT of males: animals with grade —: 5
[2]
  Physical dependence after spontaneous withdrawal: Physical dependence was induced
  Withdrawal behaviours reversed to normal, Recovery day: 6
[3]; [12]
  A/G: 3.25 ± 0.35
  ALB: 43.3 ± 2.6 g/L
  ALP: 87.4 ± 25.6 U/L
  ALT: 24.9 ± 4.2 U/L
  AST: 126.9 ± 16.0 U/L
  CREA: 27.9 ± 2.4 µmol/L
  GLU: 6.20 ± 0.43 mmol/L
  TBIL: 1.0 ± 0.5 µmol/L
  TG: 0.19 ± 0.05 mmol/L
  TP: 56.7 ± 2.2 g/L
[3]; [13]
  A/G: 2.68 ± 0.12
  ALB: 46.4 ± 2.4 g/L
  ALP: 60.5 ± 13.8 U/L
  ALT: 29.0 ± 6.6 U/L
  AST: 103.0 ± 8.5 U/L
  CREA: 36.2 ± 3.7 µmol/L
  GLU: 7.01 ± 0.37 mmol/L
  TBIL: 1.1 ± 0.5 µmol/L
  TG: 0.28 ± 0.08 mmol/L
  TP: 63.8 ± 2.6 g/L
[3]; [14]
  A/G: 2.70 ± 0.42
  ALB: 40.1 ± 2.0 g/L
  ALP: 95.9 ± 26.3 U/L
  ALT: 28.0 ± 8.0 U/L
  AST: 122.5 ± 16.8 U/L
  CREA: 29.4 ± 2.4 µmol/L
  GLU: 6.44 ± 0.43 mmol/L
  TBIL: 0.7 ± 0.2 µmol/L
  TG: 0.19 ± 0.03 mmol/L
  TP: 55.2 ± 2.1 g/L
[3]; [15]
  A/G: 2.63 ± 0.37
  ALB: 47.0 ± 3.5 g/L
  ALP: 51.5 ± 17.8 U/L
  ALT: 29.2 ± 2.7 U/L
  AST: 95.9 ± 16.3 U/L
  CREA: 35.2 ± 1.3 µmol/L
  GLU: 6.80 ± 0.80 mmol/L
  TBIL: 1.2 ± 0.3 µmol/L
  TG: 0.27 ± 0.03 mmol/L
  TP: 65.1 ± 4.0 g/L
[3]; [16]
  A/G: 2.64 ± 0.37
  ALB: 39.9 ± 1.9 g/L
  ALP: 124.1 ± 41.1 U/L
  ALT: 28.7 ± 4.2 U/L
  AST: 132.4 ± 15.4 U/L
  CREA: 24.4 ± 1.5 µmol/L
  GLU: 6.66 ± 0.45 mmol/L
  TBIL: 0.7 ± 0.2 µmol/L
  TG: 0.16 ± 0.03 mmol/L
  TP: 55.2 ± 1.4 g/L
[3]; [17]
  A/G: 2.55 ± 0.13
  ALB: 45.5 ± 2.1 g/L
  ALP: 59.2 ± 16.1 U/L
  ALT: 34.0 ± 7.0 U/L
  AST: 105.9 ± 15.9 U/L
  CREA: 32.5 ± 3.1 µmol/L
  GLU: 6.61 ± 0.24 mmol/L
  TBIL: 0.9 ± 0.6 µmol/L
  TG: 0.30 ± 0.06 mmol/L
  TP: 63.4 ± 3.3 g/L
[3]; female rats, all LPM3480392 groups
  Increased AST and GLU and decreased CREA, magnitude: < 18%
[3]; females, all LPM3480392 groups
  Decreased ALB, magnitude: < 18%
  Decreased TP, magnitude: < 18%
[3]; [18]
  A/G: 3.02 ± 0.34
  ALB: 39.8 ± 2.0 g/L
  GLU: 5.90 ± 0.48 mmol/L
  TG: 0.21 ± 0.06 mmol/L
  TP: 53.0 ± 2.3 g/L
[3]; [19]
  A/G: 2.10 ± 0.18
  ALB: 37.4 ± 0.4 g/L
  GLU: 7.26 ± 0.55 mmol/L
  TG: 0.26 ± 0.16 mmol/L
  TP: 55.2 ± 1.7 g/L
[3]; [20]
  A/G: 3.03 ± 0.37
  ALB: 38.4 ± 2.0 g/L
  GLU: 6.39 ± 0.32 mmol/L
  TG: 0.19 ± 0.05 mmol/L
  TP: 51.3 ± 2.3 g/L
[3]; [21]
  A/G: 2.05 ± 0.08
  ALB: 36.6 ± 0.8 g/L
  GLU: 6.64 ± 0.99 mmol/L
  TG: 0.33 ± 0.12 mmol/L
  TP: 54.5 ± 0.6 g/L
[3]; [22]
  A/G: 2.94 ± 0.30
  ALB: 38.0 ± 1.6 g/L
  GLU: 6.76 ± 0.56 mmol/L
  TG: 0.17 ± 0.05 mmol/L
  TP: 51.0 ± 1.4 g/L
[3]; [23]
  A/G: 2.25 ± 0.27
  ALB: 37.7 ± 0.7 g/L
  GLU: 6.53 ± 0.83 mmol/L
  TG: 0.31 ± 0.12 mmol/L
  TP: 54.6 ± 1.7 g/L
[3]; males, all LPM3480392 groups
  Decreased ALB, magnitude: < 10%
  Decreased GLU, magnitude: < 20%
  Decreased TG, magnitude: < 49%
  Decreased TP, magnitude: < 10%
